We go through five compounds from US9957231B2, “Iodine(II)-mediated radiofluorination” (The General Hospital Corporation, priority 2014, dated 2018).

Data set [1] is described as follows: Stability of biphenyl spiroiodine(III) ylide precursors. The format is physicochemical. The text has this:
Experiments with derivatives of Meldrum's acid 8a and barbituric acid 9a, based on a challenging electron-neutral biphenyl substrate, provided radiochemical conversions of 47% and 53%, respectively. Analogs incorporating substituents on the nitrogen atoms of […] were relatively unstable at room temperature, and analogues with alkyl groups other than methyl on the quaternary carbon of diesters 9b-d were not crystalline. […] Cyclobutyl 10b and cyclopentyl 10c groups provided increased conversions, 70% and 85%, respectively.

A short description of data set [2]: pH assay of the [^18F]FPEB dose with pH indicator paper. It is filed as physicochemical. As to conditions: formulated dose, n = 3. On the procedure:
The pH of [^18F]FPEB was determined by applying a few drops of the dose to pH indicator paper. Match the reference color and the pH value conformed to our release specifications (pH=4.5-8.5).

Data set [3] in a line: Sterility testing in TSB and FTM media. As to conditions: TSB 20-25° C., FTM 30-35° C., 14 days. On the procedure: Sterility testing was performed post-release and must be started within 30 hours from end of synthesis. [^18F]FPEB sample was inoculated into Trypitcase Soy Broth (TSB) and Fluid Thioglycollate Medium (FTM) media tubes. TSB tubes were incubated at 20-25° C. and FTM tubes were incubated at 30-35° C. for 14 days and must be free of culture growth after 14 days.

As for `NC(=O)c1cc(F)cc(C#Cc2ccccn2)c1` [Example 32, 3-fluoro-5-(pyridin-2-ylethynyl)benzamide], the melting point (as a rule, the temperature, or range, at which the solid turns liquid) was in the range of 175 to 176 °C.

`O=C1OC2(CCCC2)OC(=O)C1=Ic1ccc(-c2ccccc2)cc1` [Example 10c, 6,10-dioxaspiro[4.5]decane-7,9-dion-[1,1′-biphenyl-4-iodonium]ylide]: the “thermal stability under the radiolabelling conditions” value in data set [1] (DMF, 120° C., 10 min) is “good thermal stability”.

For the compound `N#Cc1cc([18F])cc(C#Cc2ccccn2)c1` [[^18F]FPEB, [^18F]3-fluoro-5-(pyridin-2-ylethynyl)benzonitrile], in data set [2], the “pH Assay” value is listed as 5-5.5. Further, the “Sterility Testing” value in data set [3] was “No evidence of growth at 14 days post”.

`O=C1OC2(CCCCC2)OC(=O)C1=Ic1ccc(-c2ccccc2)cc1` [Example 10a, 1,5-dioxaspiro[5.5]undecane-2,4-dion-[1,1′biphenyl-4-iodonium]ylide]: the stability of precursor entry in data set [1] (room temperature / solid state) is reported as “stable crystalline solid”.

With `N#Cc1cc(C#Cc2ccccn2)cc(I=C2C(=O)OC3(CCCC3)OC2=O)c1` [Example 31, 3-((7,9-dioxo-6,10-dioxaspiro[4.5]decan-8-ylidene)-1.3-iodanyl)-5-(pyridin-2-ylethynyl)benzonitrile], the melting point is 145 to 150 °C (dec.).
